“Also recorded” adds a separate entry of the source.
How the values were obtained:
renal I/R injury in rats = assay: Renal hemodynamics (laser-Doppler flowmetry, arterial pressure) during and after renal I/R; assay type: in vivo, rat
Method: Assessment of renal hemodynamics: Additional experiments were performed to determine if the renoprotective effect of 5, 14-20-HEDGE on renal I/R injury was associated with changes in renal cortical and medullary hemodynamics. Rats were anesthetized with ketamine (50 mg/kg, i.m.) and Inactin (100 mg/kg, i.p.; Sigma; St. Louis, Mo.). Catheters were placed in the femoral artery for continuous measurement of arterial pressure and in the femoral vein for i.v. infusions. The left kidney was then exposed and placed in a kidney holder and a single-mode optical fiber was implanted 4 mm into the kidney for measurement of MBF by laser-Doppler flowmetry (LDF) as previously described. See, Zou A, et al., J. Hypertens. 13:557-566 (1995). CBF was measured by a second laser-Doppler probe held in static position by a micromanipulator 1 mm above the renal cortex. After surgery and a 30-minute stabilization period, MAP, CBF and MBF were continuously recorded using WinDaq data acquisition software (DATAQ Instruments Inc.; Akron, Ohio) during a 5-minute control period. Baseline MAP, MBF and CBF were determined and then 5, 14-20-HEDGE (1 mg/kg s.c.) or vehicle (1 ml/kg s.c.) were administered. Thirty minutes later, the blood supply to the left kidney was occluded for 45 minutes. MAP, MBF and CBF were recorded during ischemia and for 3 hours following reperfusion.

[1] = Plasma levels of the 20-HETE analogs after s.c. injection (LC/MS); assay type: in vivo, rat; conditions: rats, 10 mg/kg s.c.; for peak blood levels: 10 mg/kg
Method: Measurement of plasma levels of the 20-HETE analogs: A chronic polyvinyl catheter was implanted into the jugular vein and exteriorized at the back of the neck of SD rats several days prior to an experiment. After a three-day recovery period, the rats (n=4 in each group) received a s.c. injection of either 5, 14-20-HEDE (10 mg/kg) or 5, 14-20-HEDGE (10 mg/kg), and blood samples were collected 1, 4, 8 and 24 hours after administration. Plasma levels of 5, 14-20-HEDE and 5, 14-20-HEDGE were measured by liquid chromatography-mass spectrometry (LC/MS) using an Applied Biosystems API 3000 LC/MS/MS (Foster City, Calif.).

[2] = tested on: renal I/R injury in SD rats; assay: Renal I/R injury model (Example 3): plasma creatinine, tubular injury, TUNEL; assay type: in vivo, rat; conditions: for area occupied by necrotic tubular epithelium or cast material (tubular injury score): compared to vehicle or HET0016-treated animals; for histological appearance of tubular injury (H&E, fluorescence microscopy): corticomedullary junction; for effect on plasma creatinine 24 hours following renal I/R injury: HET0016 5 mg/kg s.c., 5,14-20-HEDGE 1 mg/kg s.c.; for plasma creatinine: SD rats, 24 h after 30 min ischemia, s.c. 30 min prior: HET0016 5 mg/kg, 5,14-20-HEDE 10 mg/kg, 5,14-20-HEDGE 1 mg/kg
Method: Renal I/R Injury Model: Rats were anesthetized with ketamine (50 mg/kg, i.m.) and sodium pentobarbital (50 mg/kg, i.p) and were placed on a heated surgical table to maintain body temperature at 37° C. A midline abdominal incision was made to expose the kidneys, and the renal arteries and veins were bilaterally occluded for 30 minutes using microvascular clamps. The clamps were then removed, the abdominal incision was closed, and the rats were allowed to recover for 24 hours. Rats were then euthanized with sodium pentobarbital (100 mg/kg, i.p.), and blood was collected from the aorta for measurement of plasma creatinine concentration using the Jaffe reaction. Both kidneys were collected for histological analysis.
In addition, the method was repeated on four groups of rats. However, rats were pretreated with a s.c. injection of vehicle or one of three treatments 30 minutes prior to induction of renal ischemia. Group 1 served as the control group and received 1 ml/kg of a vehicle (11% sulfobutyl-•-cyclodextrin in 165 mM mannitol solution, […].); Group 2 received HET0016 (5 mg/kg, s.c.); Group 3 received 5, 14-20-HEDE (10 mg/kg; s.c.); and Group 4 received 5, 14-20-HEDGE (1 mg/kg; s.c.).
Analysis of the degree of tubular injury: The kidneys of rats subjected to renal I/R injury were fixed in 10% formalin and paraffin sections (3•m) were prepared and stained with hematoxylin and eosin. The sections were examined at low power using a 2× objective of an Olympus BHT-2 (Olympus; Center Valley, Pa.) epifluorescent microscope equipped with a 540-nm excitation filter and a 590-nm emission filter. For each specimen, five randomly chosen outer medullary fields were photographed at 100× magnification using a digital color camera and following appropriate thresholding. The percentage of the area containing fluorescent necrotic tubular epithelium or cast material was quantified using Image-Pro Plus image analysis software (version 6.2; Media Cybernetics, Inc.; Bethesda, Md.). TUNEL labeling was also performed to assess the degree of apoptosis following renal LIR injury using an ApopTag Plus In Situ Apoptosis Fluorescein Detection Kit (Chemicon International; Temecula, Calif.) following the manufacturer's protocol. Apoptotic nuclei were visualized at approximately 100× by fluorescence microscopy and quantified using Metamorphi Image Analysis Software (Molecular Devices Corp.; Dowington, Pa.). A total of five fields were analyzed per section, with one section analyzed per animal. Data were expressed as the percentage of TUNEL positive nuclei per total number of DAPI stained cells.

[3] = tested on: renal ischemia-reperfusion injury in SD rats; assay: Renal ischemia-reperfusion injury model (Example 2); assay type: in vivo, rat; conditions: 30 min ischemia, 24 h reperfusion; for degree of renal I/R injury reflected by rise in plasma creatinine concentration: HET0016 5 mg/kg s.c., WIT003 10 mg/kg s.c., 30 min prior, vs vehicle
Method: Renal Ischemia-Reperfusion Injury Model: Experiments were performed in male SD rats anesthetized with pentobarbital (50 mg/kg). The kidneys were exposed via a midline incision and the renal arteries isolated. Adjustable vascular occluders were placed on both the right and left renal arteries to completely occlude blood flow to the kidneys for 30 minutes. After the period of complete renal ischemia, the clamps were removed and the kidneys were reperfused. The surgical incisions were closed with 2-0 silk suture and the animals were allowed to fully recover from anesthesia. Twenty four hours later, the rats were reanesthetized with pentobarbital, and a sample of blood collected from the aorta for measurement of plasma creatinine concentration using an autoanalyzer. The kidneys were collected, fixed in 10% formalin solution, and paraffin sections prepared and stained with H&E to evaluate the degree of tubular necrosis and injury.
Three groups of rats were studied. Group 1 rats were treated with vehicle and served as the control animals. Group 2 rats were treated with HET0016 (5 mg/kg, s.c.) 30 minutes prior to renal ischemia. Group 3 rats were given 5, 14-20-HEDE (WIT003) (10 mg/kg, s.c.) by injection 30 minutes prior to renal ischemia.

isolated glomeruli = assay: Albumin permeability (Palb) of isolated glomeruli; assay type: cell-based, rat; conditions: for increase in Palb produced by TGF-•1 after pretreatment of glomeruli: pretreated with 1 μmol/L for 15 minutes at 37° C., then TGF-•1 10 ng/ml
Method: Measurement of Albumin Permeability (Palb): Glomeruli were isolated using the sieving method as previously described in a medium containing 5 g/dl of bovine serum albumin (BSA). See, Sharma R, et al, Kidney Intl. 58:131-136 (2000); and Savin V, et al. J. Am. Soc. Nephrol. 3:1260-1269 (1992). In each experimental condition, Palb was determined from the change in glomerular volume (•V) after exchange of the bath with medium containing 1 g/dl albumin. Palb was calculated as 1−(•Vexperimental/•Vcontrol) where glomeruli from SD rats fed a normal-salt diet were used to provide the control value for each experiment. To verify that lack of •Vs in Dahl S rats were related to changes in Palb rather than to changes in mechanical properties of glomeruli, additional studies were performed in which the glomeruli were exposed to a 5% solution of high molecular weight dextran.
In other experiments, we examined the interaction of TGF-• and 20-HETE on Palb in glomeruli isolated from SD rats and Dahl S rats fed either a LS diet or a HS diet for 4 days. Glomeruli were preincubated with vehicle or TGF-•1 (10 ng/ml) for 15 minutes at 37° C. and changes in Palb were determined. Glomeruli were also pretreated with 5, 14-20-HEDE (WIT003) (1 μmol/L; Taisho Pharmaceutical; Tokyo, Japan) (Alonso-Galicia et al., supra; and Yu et al., supra), for 15 minutes at 37° C. and the Palb response to TGF-• 1 (10 ng/ml) was redetermined. A minimum of 5 glomeruli from each rat were studied, and the experiments were performed using •5 rats per treatment group.

[4] = 1 mg/kg s.c., vs vehicle, listed as 5, 14-20-HEDGE

Row | SMILES | CBF or MBF prior to the induction of renal ischemia (renal I/R injury in rats; 1 mg/kg s.c.) | post-ischemic medullary blood flow (MBF) (renal I/R injury in rats; 1 mg/kg s.c. 30 min before 45 min ischemia, 3 h reperfusion, vs vehicle, listed as 5, 14-20-HEDGE) | mean arterial pressure (MAP) (renal I/R injury in rats; [4]) | post-ischemic cortical blood flow (CBF) (renal I/R injury in rats; [4]) | half-life [1] | peak blood levels [1] | number of apoptotic nuclei (TUNEL staining) ([2]; 24 h after renal I/R, 1 mg/kg s.c., vs vehicle) | area occupied by necrotic tubular epithelium or cast material (tubular injury score) ([2]; 24 h after renal I/R) | histological appearance of tubular injury (H&E, fluorescence microscopy) ([2]; 24 h after renal I/R) | effect on plasma creatinine 24 hours following renal I/R injury ([2]; vs vehicle) | plasma creatinine [2] | degree of renal I/R injury reflected by rise in plasma creatinine concentration [3] | Palb after TGF-•1 in glomeruli pretreated with 20-HETE analog (isolated glomeruli; glomeruli from Dahl S rats fed HS diet for 4 days, TGF-•1 10 ng/ml) | Palb, baseline after pretreatment with 20-HETE analog (isolated glomeruli; glomeruli from Dahl S rats fed HS diet for 4 days, before TGF-•1) | baseline Palb after pretreatment of glomeruli (isolated glomeruli; glomeruli pretreated with 1 μmol/L for 15 minutes at 37° C., SD rats) | increase in Palb produced by TGF-•1 after pretreatment of glomeruli (isolated glomeruli; SD rats, listed as 20-HETE analog) | increase in Palb produced by TGF-•1 after pretreatment of glomeruli (isolated glomeruli; SD rats, listed as WIT003) | reduction of plasma creatinine ([2]; 10 mg/kg s.c., 24 h after renal I/R, vs vehicle) | area occupied by necrotic tubular epithelium or cast material (tubular injury score) ([2]; 24 h after renal I/R, listed as 5, 14-20-HEDE) | histological damage to S3 segment of the proximal tubule ([3]; 10 mg/kg s.c., data not shown)
1 | O=C(O)CNC(=O)CCC/C=C\CCCCCCC/C=C\CCCCCO [5,14-20-HEDGE, N-[20-hydroxyeicosa-5(Z),14(Z)-dienoyl]glycine] | did not have a significant effect | completely prevented the post-ischemic fall in MBF | without altering; also recorded: no effect | without altering; also recorded: no effect | approximately four | 300 ng/ml and approximately 1 μM | significantly less | less severe renal injury; also recorded: marked reduction | less severe renal injury with only focal tubular necrosis or exfoliation of tubular cells | nearly completely prevent the rise | 0.5 ± 0.02 mg/dL |  |  |  |  |  |  |  |  | 
2 | CCCCc1ccc(N=CNO)c(C)c1 [HET0016, N-hydroxy-N′-(4-butyl-2-methylphenol)-formamidine, reference compound] |  |  |  |  |  |  |  |  | Diffuse tubular cell denudation, tubular cell necrosis, intratubular debris and tubular casts were present | significant increase | 3.8 ± 0.3 mg/dL | significantly greater |  |  |  |  |  |  |  | 
3 | O=C(O)CCC/C=C\CCCCCCC/C=C\CCCCCO [5,14-20-HEDE, 20-hydroxyeicosa-5(Z),14(Z)-dienoic acid] |  |  |  |  | approximately four | 300 ng/ml and approximately 1 μM |  |  | less severe renal injury with only focal tubular necrosis or exfoliation of tubular cells |  | 1.6 ± 0.3 mg/dL | significantly reduced | 0.40±0.01 | 0.25±0.01 | reduced | greatly attenuated | opposed | approximately 50% | less severe renal injury; also recorded: marked reduction | reduced
